These results are taken from US6048865A, “N^6 -substituted-adenosine-5'-uronamides as adenosine receptor modulator” (priority 1998, dated 2000).

Molecules are shown by their SMILES. “Also recorded” adds a separate entry of the source. Read-outs that look alike come from different tables or passages of the source.

Assay [1] concerns the target T1, rat A3 adenosine receptor (Rattus norvegicus, UniProt P28647).
T1 sequence (P28647 1-320): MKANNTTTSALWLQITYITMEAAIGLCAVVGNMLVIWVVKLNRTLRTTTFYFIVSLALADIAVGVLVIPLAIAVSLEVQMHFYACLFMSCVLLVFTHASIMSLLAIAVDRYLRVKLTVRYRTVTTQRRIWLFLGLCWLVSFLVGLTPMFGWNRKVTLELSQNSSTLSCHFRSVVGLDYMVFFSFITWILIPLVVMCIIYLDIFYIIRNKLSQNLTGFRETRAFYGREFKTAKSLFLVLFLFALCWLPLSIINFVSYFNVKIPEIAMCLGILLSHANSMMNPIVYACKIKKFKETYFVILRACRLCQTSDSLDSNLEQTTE
Description: (§1) Procedures for preparing rat brain membranes and Chinese hamster ovary (CHO) cell membranes were as reported^30, 38, 44. For binding experients, membrane homogenates were frozen and stored at -20° C. for greater than 2 months. Adenosine deaminase (ADA) was purchased from Boehringer Mannheim (Indianapolis, Ind.).
(§2) Inhibitors were routinely dissolved in DMSO. […] Incubations were carried out in duplicate for 1 h at 37° C., and were terminated by rapid filtration over Whatman GF/B filters using a Brandell cell harvester (Brandell, Gaithersburg, Md.). Tubes were washed three times with 3 mL of buffer. Radioactivity was determined in a Beckman gamma 5500B γ-counter.
(§3) Nonspecific binding was determined in the presence of 200 μM NECA. […] Additional deaminase was not added during incubation with the radioligand.

The next assay concerns the target T2, rat A3 receptor (Rattus norvegicus, UniProt P28647).
T2 sequence (P28647 1-320): T1 sequence (P28647 1-320)
Description: Binding of [35S]GTP-γ-S to rat RBL-2H3 mast cell membranes. In kind it is biochemical. On the procedure:
The binding for [^35 S]GTP-y-S (Ameersham, Chicago Ill., specific activity 1275 Ci/mmol) was carried out using rat RBL-2H3 mast cell membranes by the general method of Lorenzen et al.^47 Membranes were suspended in a buffer containing 50 mM Tris, 3 units/mL adenosine deaminase, 100 mM NaCl, and 10 mM MgCl2 (pH 7.4) and a protein concentration of 1 to 10 μg per tube. The membrane suspension was preincubated with […], R-PIA and/or riboflavin in a final volume of 125 μL buffer at 30° C. for 60 min and then transferred to ice for 20 min. [^35 S]GTP-γy-S was added to a final concentration of 0.1 nM in a total volume of 500 μL and the mixture was incubated for 30 min at 30° C. Non-specific binding was determined in the presence of 10 μM GTP-γ-S (Sigma, St. Louis Mo.). Incubation of the reaction mixture was terminated by filtration over a GF/B glass filter using a Brandell cell harvester and washed with the same buffer.
The assay involved the agonist-induced inhibition of binding of guanine nucleotide to rat RBL-2H3 mast cell membranes, which contain a high density of A3 receptors.
Background: GTPγS resists hydrolysis and so accumulates on activated G proteins.

Assay [2] deals with T3, rat brain A2A adenosine receptor (Rattus norvegicus, UniProt P30543).
T3 construct: A2A receptors for rat striatal membranes; from tissue; host or cells: rat striatal membranes
Nature of the assay: Displacement of specific [3H]CGS 21680 binding in rat striatal membranes. The following applies: rat striatal membranes, [3H]CGS 21680; Ki ± SEM, n = 3-6.
Description: For binding experients, membrane homogenates were frozen and stored at -20° C. for greater than 2 months. Adenosine deaminase (ADA) was purchased from Boehringer Mannheim (Indianapolis, Ind.).
as §3

For assay [3], the target named is T1, rat A3 adenosine receptor. The source holds these as a separate data set.
Description: as §1, §2, §3
The target in assay [4] is T4, human A3 adenosine receptor (Homo sapiens, UniProt P0DMS8).
T4 construct: expressed in transfected cells; host or cells: HEK-293 cells
T4 sequence (P0DMS8 1-318): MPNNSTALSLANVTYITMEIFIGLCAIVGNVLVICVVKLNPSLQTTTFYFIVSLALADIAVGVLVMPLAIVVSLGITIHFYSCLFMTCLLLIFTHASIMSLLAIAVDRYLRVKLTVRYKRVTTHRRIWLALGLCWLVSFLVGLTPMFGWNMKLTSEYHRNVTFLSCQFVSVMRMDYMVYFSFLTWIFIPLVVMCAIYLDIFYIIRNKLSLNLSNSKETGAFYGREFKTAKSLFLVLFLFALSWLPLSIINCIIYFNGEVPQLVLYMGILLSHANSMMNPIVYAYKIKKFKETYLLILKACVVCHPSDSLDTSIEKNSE
Description: Binding of [125I]-AB-MECA to HEK-293 cells stably expressing the human A3 receptor. Particulars: read-out: affinity at human A3 adenosine receptors. An excerpt: Inhibitors were routinely dissolved in DMSO.

Assay [5] addresses T5, rat brain A1 adenosine receptor (Rattus norvegicus, UniProt P25099).
T5 sequence (P25099 1-326): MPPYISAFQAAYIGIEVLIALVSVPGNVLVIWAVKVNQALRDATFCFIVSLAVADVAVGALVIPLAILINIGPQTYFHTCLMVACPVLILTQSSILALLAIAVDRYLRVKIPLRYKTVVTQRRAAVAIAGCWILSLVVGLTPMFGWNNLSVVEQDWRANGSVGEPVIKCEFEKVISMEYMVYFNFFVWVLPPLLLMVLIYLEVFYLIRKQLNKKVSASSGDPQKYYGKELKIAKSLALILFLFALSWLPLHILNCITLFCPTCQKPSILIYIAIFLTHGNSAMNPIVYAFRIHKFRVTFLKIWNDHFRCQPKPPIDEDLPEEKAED
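Throughout, for A1/A3: radioligand binding on membrane homogenates, 1 h incubation at 37 °C in duplicate, gamma counting of filter-bound radioactivity, nonspecific binding defined using 200 µM NECA.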
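Throughout, for A2A/A3: radioligand binding on membrane homogenates, 1 h incubation at 37 °C in duplicate, gamma counting of filter-bound radioactivity, nonspecific binding defined using 200 µM NECA.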
Description: Procedures for preparing rat brain membranes and Chinese hamster ovary (CHO) cell membranes were as reported^30, 38, 44. For binding experients, membrane homogenates were frozen and stored at -20° C. for greater than 2 months.
as §3

T3 sequence (P30543 whole entry): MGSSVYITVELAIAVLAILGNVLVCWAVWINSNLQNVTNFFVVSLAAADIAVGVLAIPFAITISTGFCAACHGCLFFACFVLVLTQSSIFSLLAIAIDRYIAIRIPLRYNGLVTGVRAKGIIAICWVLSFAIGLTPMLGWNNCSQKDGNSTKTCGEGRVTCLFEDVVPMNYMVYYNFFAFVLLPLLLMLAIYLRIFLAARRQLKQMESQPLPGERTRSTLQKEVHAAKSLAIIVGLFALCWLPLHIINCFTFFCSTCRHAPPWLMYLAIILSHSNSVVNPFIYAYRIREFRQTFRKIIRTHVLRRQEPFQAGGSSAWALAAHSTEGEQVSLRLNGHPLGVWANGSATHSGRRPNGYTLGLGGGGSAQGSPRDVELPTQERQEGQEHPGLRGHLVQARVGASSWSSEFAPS

Consider `CCNC(=O)[C@H]1O[C@@H](n2cnc3c(NC(=O)Nc4ccc(S(N)(=O)=O)cc4)ncnc32)[C@H](O)[C@@H]1O` [Compound 3g, N^6-(4-sulfonamido-phenylcarbamoyl)-adenosine-5'-N-ethyluronamide], for which the Ki is 9.7 to 107 nM in assay [1]; 9.7 nM in assay [1] (read-out: affinity at A3 receptors, rat A3, running text); 1180 ± 360 nM in assay [2]; 9.73 ± 0.75 nM in assay [3]; 56.1 ± 9.1 nM in assay [4]; 453 ± 141 nM in assay [5]. The A1/A3 in assay [1] (ratio of Ki (A1) to Ki (A3), rat) amounted to 46.5. Besides, in assay [1] (ratio of Ki (A2A) to Ki (A3), rat), the A2A/A3 was determined as 121.2. The “effect on binding of [35S]GTP-γ-S” value on rat A3 receptor (FIG. 1, rat RBL-2H3 mast cell membranes) is “about as effective as the potent A3 agonists I-AB-MECA and Cl-IB-MECA; also recorded: greater potency than NECA; also recorded: increased binding of [^35 S]GTP-γ-S in a dose dependent manner”. For the same molecule, the “agonism at rat A3 receptor” value at rat A3 receptor (functional assay, rat RBL-2H3 mast cell membranes) is “full agonist”.
